Reference: ChEMBL document CHEMBL1201862, “PubChem BioAssay data set” (2004)
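Protocol summary: plate cells (96-well), add compound at 5 concentrations, incubate 48 h, interpolate endpoints linearly. GI50: concentration for 50% inhibition of growth.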 The source made the active and inactive calls. No stated cut-off is given here; in the data, active = GI50 up to about 1.1 µM and inactive = higher.

Tests used:
Assay in all cases: NCI anticancer screen, dose series, 48 h
786-0 = tested on: 786-0
A498 = tested on: A498
ACHN = tested on: ACHN
BT-549 = tested on: BT-549
CAKI-1 = tested on: CAKI-1
CCRF-CEM = tested on: CCRF-CEM
COLO 205 = tested on: COLO 205
DU-145 = tested on: DU-145
EKVX = tested on: EKVX
HCC 2998 = tested on: HCC 2998
HCT-116 = tested on: HCT-116
HCT-15 = tested on: HCT-15
HL-60 = tested on: HL-60
HOP-62 = tested on: HOP-62
HOP-92 = tested on: HOP-92
HT-29 = tested on: HT-29
Hs-578T = tested on: Hs-578T
IGROV-1 = tested on: IGROV-1
K562 = tested on: K562
KM12 = tested on: KM12
LOX IMVI = tested on: LOX IMVI
M14 = tested on: M14
MCF7 = tested on: MCF7
MDA-MB-231 = tested on: MDA-MB-231
MDA-MB-435 = tested on: MDA-MB-435
MOLT-4 = tested on: MOLT-4
NCI-H226 = tested on: NCI-H226
NCI-H23 = tested on: NCI-H23
NCI-H460 = tested on: NCI-H460
NCI/ADR-RES = tested on: NCI/ADR-RES
OVCAR-4 = tested on: OVCAR-4
OVCAR-8 = tested on: OVCAR-8
PC-3 = tested on: PC-3
RPMI-8226 = tested on: RPMI-8226
RXF 393 = tested on: RXF 393
SF-268 = tested on: SF-268
SF-295 = tested on: SF-295
SF-539 = tested on: SF-539
SK-MEL-28 = tested on: SK-MEL-28
SK-MEL-2 = tested on: SK-MEL-2
SK-MEL-5 = tested on: SK-MEL-5
SK-OV-3 = tested on: SK-OV-3
SNB-19 = tested on: SNB-19
SNB-75 = tested on: SNB-75
SR = tested on: SR
SW-620 = tested on: SW-620
T47D = tested on: T47D
TK-10 = tested on: TK-10
U-251 = tested on: U-251
UACC-257 = tested on: UACC-257
UACC-62 = tested on: UACC-62
UO-31 = tested on: UO-31
A549 = tested on: A549
NCI-H522 = tested on: NCI-H522
OVCAR-3 = tested on: OVCAR-3
OVCAR-5 = tested on: OVCAR-5
SN12C = tested on: SN12C

In the case of `Cc1cccc(NC(=S)Nc2ccc([N+](=O)[O-])cc2)n1`, the GI50 (786-0) was > 100 µM (inactive), the GI50 (A498) was > 100 µM (inactive) and the GI50 (ACHN) was > 100 µM (inactive). The GI50 (BT-549) was > 100 µM (inactive), the GI50 (CAKI-1) was > 100 µM (inactive) and the GI50 (CCRF-CEM) was > 100 µM (inactive). The GI50 (COLO 205) was > 100 µM (inactive), the GI50 (DU-145) was > 100 µM (inactive) and the GI50 (EKVX) was > 100 µM (inactive). For the same compound, the GI50 (HCC 2998) was > 100 µM (inactive), the GI50 (HCT-116) was > 100 µM (inactive) and the GI50 (HCT-15) was greater than 100 µM. For the same compound, the GI50 (HL-60) was > 100 µM (inactive), the GI50 (HOP-62) was > 100 µM (inactive) and the GI50 (HOP-92) was > 100 µM (inactive). For the same compound, the GI50 (HT-29) was > 100 µM (inactive), the GI50 (Hs-578T) was > 100 µM (inactive) and the GI50 (IGROV-1) was > 100 µM (inactive). The GI50 (K562) was > 100 µM (inactive), the GI50 (KM12) was > 100 µM (inactive) and the GI50 (LOX IMVI) was > 100 µM (inactive). The GI50 (M14) was > 100 µM (inactive), the GI50 (MCF7) was > 100 µM (inactive) and the GI50 (MDA-MB-231) was > 100 µM (inactive). The GI50 (MDA-MB-435) was > 100 µM (inactive), the GI50 (MOLT-4) was > 100 µM (inactive) and the GI50 (NCI-H226) was > 100 µM (inactive). The GI50 (NCI-H23) was > 100 µM (inactive), the GI50 (NCI-H460) was > 100 µM (inactive) and the GI50 (NCI/ADR-RES) was > 100 µM (inactive). For the same compound, the GI50 (OVCAR-4) was > 100 µM (inactive), the GI50 (OVCAR-8) was > 100 µM (inactive) and the GI50 (PC-3) was > 100 µM (inactive). For the same compound, the GI50 (RPMI-8226) was > 100 µM (inactive), the GI50 (RXF 393) was > 100 µM (inactive) and the GI50 (SF-268) was > 100 µM (inactive). The GI50 (SF-295) was > 100 µM (inactive), the GI50 (SF-539) was > 100 µM (inactive) and the GI50 (SK-MEL-28) was > 100 µM (inactive). The GI50 (SK-MEL-2) was > 100 µM (inactive), the GI50 (SK-MEL-5) was > 100 µM (inactive) and the GI50 (SK-OV-3) was > 100 µM (inactive). For the same compound, the GI50 (SNB-19) was > 100 µM (inactive), the GI50 (SNB-75) was > 100 µM (inactive) and the GI50 (SR) was > 100 µM (inactive). For the same compound, the GI50 (SW-620) was > 100 µM (inactive), the GI50 (T47D) was > 100 µM (inactive) and the GI50 (TK-10) was > 100 µM (inactive). The GI50 (U-251) was > 100 µM (inactive), the GI50 (UACC-257) was > 100 µM (inactive) and the GI50 (UACC-62) was > 100 µM (inactive). For the same compound, the GI50 (UO-31) was > 100 µM (inactive).
In the case of `O=Cc1ccccc1B(O)O`, the GI50 (786-0) was 43.4 µM (inactive), the GI50 (A549) was 12.7 µM (inactive) and the GI50 (ACHN) was 19.1 µM (inactive). The GI50 (BT-549) was 15.1 µM (inactive), the GI50 (CAKI-1) was 47.5 µM (inactive) and the GI50 (CCRF-CEM) was 6.34 µM (inactive). The GI50 (COLO 205) was 14.7 µM (inactive), the GI50 (DU-145) was < 0.01 µM (active) and the GI50 (EKVX) was < 0.01 µM (active). The GI50 (HCT-116) was 43.2 µM (inactive), the GI50 (HCT-15) was 62.7 µM and the GI50 (HL-60) was 22 µM (inactive). The GI50 (HOP-62) was > 100 µM (inactive), the GI50 (HT-29) was 18.9 µM (inactive) and the GI50 (Hs-578T) was 0.231 µM (active). The GI50 (IGROV-1) was 29.6 µM (inactive), the GI50 (K562) was 23.1 µM (inactive) and the GI50 (KM12) was > 100 µM (inactive). The GI50 (LOX IMVI) was 20.7 µM (inactive), the GI50 (M14) was > 100 µM (inactive) and the GI50 (MCF7) was 29.4 µM (inactive). For the same compound, the GI50 (MDA-MB-231) was 37.8 µM (inactive), the GI50 (MDA-MB-435) was 99.1 µM (inactive) and the GI50 (MOLT-4) was 1.09 µM (active). The GI50 (NCI-H226) was > 100 µM (inactive), the GI50 (NCI-H460) was > 100 µM (inactive) and the GI50 (NCI-H522) was 22.9 µM (inactive). For the same compound, the GI50 (NCI/ADR-RES) was 52 µM (inactive), the GI50 (OVCAR-3) was 33.6 µM (inactive) and the GI50 (OVCAR-4) was 0.368 µM (active). For the same compound, the GI50 (OVCAR-5) was 87.5 µM (inactive), the GI50 (OVCAR-8) was 67.8 µM (inactive) and the GI50 (PC-3) was 22.1 µM (inactive). The GI50 (RPMI-8226) was < 0.01 µM (active), the GI50 (RXF 393) was 15.7 µM (inactive) and the GI50 (SF-268) was > 100 µM (inactive). For the same compound, the GI50 (SF-295) was > 100 µM (inactive), the GI50 (SF-539) was > 100 µM (inactive) and the GI50 (SK-MEL-28) was 68.4 µM (inactive). For the same compound, the GI50 (SK-MEL-2) was > 100 µM (inactive), the GI50 (SK-OV-3) was > 100 µM (inactive) and the GI50 (SN12C) was > 100 µM (inactive). For the same compound, the GI50 (SNB-19) was > 100 µM (inactive), the GI50 (SNB-75) was 43.8 µM (inactive) and the GI50 (SR) was < 0.01 µM (active). For the same compound, the GI50 (SW-620) was 25.7 µM (inactive), the GI50 (T47D) was 0.0147 µM (active) and the GI50 (TK-10) was 55.6 µM (inactive). The GI50 (U-251) was 30.7 µM (inactive), the GI50 (UACC-257) was 25.8 µM (inactive) and the GI50 (UACC-62) was 31.5 µM (inactive). For the same compound, the GI50 (UO-31) was 54.1 µM (inactive).
